Experimental findings from patent publication US10532082B2, “SOCS1-derived peptide for use in chronic complications of diabetes” (Fundació Hospital Universitari Vall d'Hebron-Institut de …, priority 2014, dated 2020) are described below.

The test system of series [1] is diabetic mice (db/db). Nature of the series: Electroretinogram (ERG) recordings, topical eye drops. It counts as in vivo. As to conditions: eye drops 15 days. How it is done: 8-week old diabetic mice (db/db) received the miS1 peptide in the form of eye drops (5 μL drops in each eye; 10 mg/mL; twice a day for 15 days; n=7 mice). Diabetic mice treated with the non-functional peptide Mut (n=7), treated with vehicle and non-diabetic mice (db/+) were used as controls. The eye drops were directly administered on the upper surface of the cornea of each eye using a micropipette. The weight and glycemia (colorimetric assay) were controlled throughout the study period. On day 15, the drop with the miS1 peptide or vehicle was administered about two hours before autopsy. […]
Electroretinogram (ERG) recordings were performed in darkness-adapted anesthetized mice (12 hours overnight). Focal electroretinogram (Ferg) recordings were measured using a Micron III Focal ERG system (Phoenix Research Labs, Pleasanton, Calif.). […] The ERG responses of both eyes were recorded in response to 20 ms white light stimuli. […] The ERG signals were amplified, the filtered band was between 0.5 and 1000 Hz, and was analyzed with LabScribe-2 software (BioSeb, Vitrolles, France) in order to calculate the a-wave and b-wave amplitude and implicit time, as recommended by the International Society of Clinical Electrophysiology of Vision (ISCEV) (Marmor et al Doc Ophtalmol 108: 107 a 144). […]

The subject of series [2] is STAT1. Nature of the series: STAT1 activation in cytokine-stimulated VSMC. As to conditions: IFNγ and IL-6 stimulation, immunofluorescence images. Format: cell-based, mouse.
The test system of series [3] is streptozotocin diabetic apoE-deficient mice. Nature of the series: Kidney histology (lesions, fibrosis, inflammatory infiltrate) in diabetic mice. It counts as in vivo. As to conditions: STZ apoE mice, i.p. 8 weeks. How it is done:
(§1) Apolipoprotein E (apoE)-deficient male mice of 8 weeks of age were made diabetic through streptozotocin injection (125 mg/kg weight in 10 mM citrate, pH 4.5, two consecutive days). After 2 weeks, animals with glycemia greater than 350 mg/dL were randomly distributed in two groups (n=9 animals per group): treated animals (miS1 peptide: 65 μg/day, 200 μL, intraperitoneally, every 2 days for 8 weeks) and controls (vehicle). The weight and glycemia (colorimetric assay) were controlled throughout the study period.
(§2) At the end of the study, the anesthetized animals were perfused with saline and sacrificed, processing the tissues immediately. In renal cortex (paraffin sections, 5 μm) the glomerular and tubulointerstitial morphology was studied by means of PAS and Masson trichrome staining and the lesions were evaluated in a double-blind and semi-quantitative manner in a scale of 0-3. Renal fibrosis was determined by means of Picro-Sirius red staining and the infiltrating inflammatory cells (F4/80+ macrophages and CD3+ T-lymphocytes) by immunohistochemistry. In the aorta, the root/arch zone (serial cryosections of 8 μm from the valves to an extension of 1000 μm) was stained with Oil-red-O/hematoxylin and the area of the atherosclerotic lesion was quantified (Metamorph program). Plaque stability was assessed by collagen fiber staining with Picro-Sirius red and α-actin immunofluorescence. The inflammatory component was determined by means of immunohistochemistry for monocyte/macrophages (Moma2). The Image Pro-Plus program was used for quantifying positive stainings. The biochemical parameters in serum (glycated hemoglobin, cholesterol and creatinine) and in urine (albumin and creatinine) were determined by means of conventional commercial kits.

For series [4], the system named is diabetic mice (db/db). Nature of the series: Disruption of the blood-retinal barrier, albumin extravasation. As to conditions: eye drops 50 μg in 5 μL/eye twice a day, 15 days. Format: in vivo. How it is done:
8-week old diabetic mice (db/db) received the miS1 peptide in the form of eye drops (5 μL drops in each eye; 10 mg/mL; twice a day for 15 days; n=7 mice). Diabetic mice treated with vehicle (n=7) and non-diabetic mice (db/+) (n=7) were used as controls. The weight and glycemia (colorimetric assay) were controlled throughout the study period. The animals were euthanized on day 15 by cervical dislocation. The disruption of the BRB was evaluated by means of determining albumin permeability.
The paraffin sections were deparaffinized in xylene and rehydrated in a gradual series of ethanol. The sections were fixed in acidic methanol (−20° C.) for 1 minute and washed with 0.01 M PBS solution at pH 7.4. The sections were incubated in a blocking solution (2.5% dry, non-fat milk) for 30 minutes at room temperature. The sections were incubated with a goat anti-human serum albumin primary antibody (1:500, Abcam) overnight at 4° C. After one washing in PBS, the sections were incubated with an Alexa 594 donkey anti-goat secondary antibody (1:200, Molecular Probes) for 1 hour at room temperature. […] The immunofluorescence of albumin was analyzed by means of laser confocal microscopy (Olympus FluoView™ FV1000 confocal microscope, Hamburg, Germany).

In series [5] the test system is streptozotocin diabetic apoE-deficient mice. Nature of the series: Metabolic and renal data in mice with type 1 diabetes, intraperitoneal treatment. It counts as in vivo. As to conditions: STZ apoE mice, 65 μg/day i.p. every 2 days, 8 weeks. How it is done: as §1, §2
Series [6] relates to STAT3. Nature of the series: Renal phosphorylated STAT3 immunodetection in diabetic mice. Format: in vivo. As to conditions: STZ apoE mice, i.p. 8 weeks; kidney sections, vs vehicle. As for the experimental part: as §1
The test system of series [7] is STAT1. Nature of the series: STAT1 activation in cytokine-stimulated macrophages (Western blot). It counts as cell-based, murine. Conditions: pre-incubation 50-150 ug/mL (Mut 150 ug/mL), IFNγ and IL-6 stimulation. How it is done:
RAW264.7 macrophages and vascular smooth muscle cells (VSMC) cultured in a medium with 10% fetal bovine serum were used. The cells were synchronized (24 hours without serum), pre-incubated for 90 minutes with different peptide concentrations (miS1 or the control thereof, 50-150 μg/mL) and stimulated with cytokines (IFNγ […]). STAT activation was analyzed by means of Western blot for phosphorylated STAT1/STAT3 isoforms. JAK/STAT pathway-dependent chemokine (CCL2) expression was determined by means of ELISA. Cell viability was analyzed by MTT colorimetric assay and macrophage migration was analyzed by chemotaxis assay.
A general note: In western blotting, separated proteins are transferred to a membrane and probed.

Where no end group is shown, it is not given here. [ ]: non-standard residue; d: D form. lysine‑palmitate = lysine-palmitate bound at the N-terminal end; pY = N[C@@H](Cc1ccc(OP(=O)(O)O)cc1)C(=O)O

As to “miS1: SEQ ID NO 1 DTHFRTFRSHSDYRRI, kinase inhibitory region of murine SOCS1, bound to lysine-palmitate at the N-terminal end, tyrosine phosphorylated ({lysine‑palmitate}-DTHFRTFRSHSD[pY]RRI)”, the “ERG a-wave and b-wave implicit time” value in series [1] (diabetes-induced increase) is “declines”. Further, in series [1] (diabetes-induced reduction), the “ERG a-wave and b-wave amplitude” value was “declines the reduction”. Moreover, in series [2], the STAT1 activation entry is “prevented”. Moreover, in series [3], the “inflammatory lymphocyte and macrophage infiltrate in kidney” value was “significantly reduced”; the tubulointerstitial fibrosis entry was “significantly reduced”. Moreover, in series [3] (vs vehicle), the “glomerular lesions (hypercellularity, mesangial expansion and glomerular hypertrophy)” value is recorded as “improvement”; the “tubulointerstitial lesions (atrophy, degeneration and infiltrate)” value is given as “improvement”. In addition, the “albumin extravasation (vascular permeability)” value in series [4] is reported as “prevented”. Also, the “weight loss caused by chronic diabetes” value in series [5] was “less pronounced”. In series [5] (end of study), this substance gave an ALT of 97 ± 17 U/L, an AST of 176 ± 20 U/L, a Blood glucose of 549 ± 29 mg/dL and a GHbA1c of 503 ± 76 µg/mL. In series [5] (end of study), this substance yielded an HDL cholesterol of 11 ± 1 mg/dL, an LDL cholesterol of 597 ± 61 mg/dL, a Total cholesterol of 611 ± 59 mg/dL and a Triglycerides of 89 ± 23 mg/dL. For the same substance, the Weight in series [5] (end of study) amounted to 21.9 ± 0.6 g. The Urine albumin-creatinine ratio in series [5] (p < 0.01 vs control) was determined as 16.2 ± 61.1 µg/µmol. Moreover, the Serum creatinine in series [5] (p < 0.02 vs control) is reported as 0.24 ± 0.04 mg/dL. Besides, the Kidney-body mass ratio in series [5] (p < 0.05 vs control) amounted to 16.4 ± 1.3 mg/g. Further, in series [5] (vs vehicle), the “decrease in albumin levels (renal function)” value was determined as 28%. Also, the “renal STAT3 activation” value in series [6] is given as “reduction”. Besides, in series [7], the “STAT1 activation (phosphorylation)” value was “reduced STAT1 and STAT3 activation in a dose-dependent manner”.
